Test results from ChEMBL document CHEMBL1135897, “Design and synthesis of a novel L-dopa-entacapone codrug” (J Med Chem, 2002).

Key:
[1] = Half-life period for the hydrolysis to entacopone and […] was determined in a liver homogenate at pH 7.4.; assay type: ADME, tissue-based
[2] = The half-life period, to be stable in the stomach and liver at pH 5.0, was determined; assay type: ADME, tissue-based

`CCN(CC)C(=O)/C(C#N)=C/c1cc(OC(=O)N[C@@H](Cc2ccc(O)c(O)c2)C(=O)OC)c(O)c([N+](=O)[O-])c1` showed a half-life [1] of 7 min and a half-life [2] of 66 min.
